US11578055B2, “Triazacyclododecansulfonamide (“TCD”)-based protein secretion inhibitors” (KEZAR LIFE SCIENCES, priority 2018, dated 2023)
Where two headings read alike, the source gives them in different places.

Key:
[1] = tested on: PD1 signal sequence plus 10 amino acids fused to Gaussia Luciferase (PD1-ss+10aa/Gaussia Luciferase); test: Dox Induced PD1-ss-Gluc Assay; format: cell-based; conditions: 24 hr, read-out: 24 hr Dox Inducible PD1ssGluc 293FRT/TO: Mean IC50
How it was run: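 Stable Flp-In 293 T-REx line expressing the fusion under tetracycline-inducible control, plated the day before assay. Compound dilutions added with doxycycline and incubated at 37 °C, 5% CO2; unspecified stereocentres mean data refer to stereoisomer mixtures.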

[2] = tested on: full length TNFα (amino acids 1-233) fused to Gaussia Luciferase; test: Dox Induced TNFα-FL-Gluc Assay; format: cell-based; conditions: 24 hr, read-out: 24 hr Dox Inducible TNFaFLGluc 293FRT/TO: Mean IC50
How it was run: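 Stable Flp-In 293 T-REx line expressing doxycycline-inducible full-length TNFα fused to Gaussia luciferase; cells plated the day before, then treated with compound dilutions in doxycycline-containing medium at 37° C, 5% CO2. Unspecified stereocentres mean stereoisomer mixtures were tested.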

[3] = tested on: multiple myeloma cell line NCl-H929; test: H929 Cell Viability Assay; format: cell-based, human; conditions: Homo sapiens, NCI-H929, 48 h
How it was run: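 NCI-H929 myeloma cells in RPMI 1640 with 10% FBS were treated with compound dilutions for 48 h at 37 °C, and viability was then read by CellTiter-Glo luminescence. Compounds drawn without stereochemistry were tested as stereoisomer mixtures.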

[4] = tested on: multiple myeloma cell line U266B1; test: U266 Cell Viability Assay; format: cell-based, human; conditions: Homo sapiens, U-266, 48 hr
How it was run: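 U266B1 myeloma cells in RPMI 1640 with 10% FBS were treated with compound dilutions for 48 h at 37° C, 5% CO2. Viability was read as CellTiter-Glo luminescence. Data for structures drawn without stereochemistry refer to stereoisomer mixtures.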

[5] = In Vitro Microsome Stability Assay (human); format: in vitro ADME
How it was run: (§1)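 The value reported is the percentage of parent left after 30 min, calculated from analyte/IS peak-area ratios relative to time zero by LC-MS/MS. Incubations ran at 37° C in 0.1 M potassium phosphate with NADPH and microsomes (stock 20 mg/mL), with compound added from a 0.25 mM DMSO stock. Acetonitrile containing IS stopped the reactions.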

[6] = In Vitro Microsome Stability Assay (mouse); format: in vitro ADME
How it was run: as §1

[7] = In Vitro Microsome Stability Assay (rat); format: in vitro ADME
How it was run: as §1

[8] = In Vitro Microsome Stability Assay (monkey); format: in vitro ADME
How it was run: as §1

[9] = H929, read-out: 48 hr H929 Viability Celltiter-Glo: Mean EC50
[10] = U266, read-out: 48 hr U266 Viability Celltiter-Glo: Mean EC50

SMILES	IC50 ([1]; 293FRT/TO)	IC50 ([2]; 293FRT/TO)	EC50 [3, 9]	EC50 [4, 10]	Liver Microsome Stability-% Left after 30 min w/ NADPH (%) Human ([5]; human, 30 min, NADPH)	Liver Microsome Stability-% Left after 30 min w/ NADPH (%) Mouse ([6]; mouse, 30 min, NADPH)	Liver Microsome Stability-% Left after 30 min w/ NADPH (%) Rat ([7]; rat, 30 min, NADPH)	Liver Microsome Stability-% Left after 30 min w/ NADPH (%) Monkey ([8]; monkey, 30 min, NADPH)	IC50 ([1]; Dox inducible, 293FRT/TO cells)	IC50 ([2]; Dox inducible, 293FRT/TO cells)	EC50 ([3]; H929, Celltiter-Glo)	EC50 ([4]; U266, Celltiter-Glo)	Liver Microsome Stability-% Left after 30 min w/ NADPH (%) Human ([5]; human liver microsomes, 30 min w/ NADPH)	Liver Microsome Stability-% Left after 30 min w/ NADPH (%) Mouse ([6]; mouse liver microsomes, 30 min w/ NADPH)	Liver Microsome Stability-% Left after 30 min w/ NADPH (%) Rat ([7]; rat liver microsomes, 30 min w/ NADPH)	Liver Microsome Stability-% Left after 30 min w/ NADPH (%) Monkey ([8]; monkey liver microsomes, 30 min w/ NADPH)
C=C1CN(S(=O)(=O)c2ccc(N(C)C)cc2)CCCN(CC2CCCCC2)CCCN(S(=O)(=O)N2CCc3cc(Cl)ccc3C2)C1 [A53, 4-({5-[(6-chloro-1,2,3,4-tetrahydroisoquinolin-2-yl)sulfonyl]-9-(cyclohexylmethyl)-3-methylidene-1,5,9-triazacyclododecan-1-yl}sulfonyl)-N,N-dimethylaniline]	0.0353 µM	1.01 µM	1.72 µM	> 10.3 µM	38%	39.2%	50.5%	39%	–	–	–	–	–	–	–	–
C=C1CN(S(=O)(=O)c2ccc(N(C)C)cc2)CCCN(CC2CCCCC2)CCCN(S(=O)(=O)N2CCc3cccc(Cl)c3C2)C1 [A51, 4-({5-[(8-chloro-1,2,3,4-tetrahydroisoquinolin-2-yl)sulfonyl]-9-(cyclohexylmethyl)-3-methylidene-1,5,9-triazacyclododecan-1-yl}sulfonyl)-N,N-dimethylaniline]	0.0614 µM	3.07 µM	6.15 µM	> 25 µM	26.7%	28%	34.7%	23.6%	–	–	–	–	–	–	–	–
C=C1CN(S(=O)(=O)c2ccc(N(C)C)cc2)CCCN(CC2CCCCC2)CCCN(S(=O)(=O)N2CCc3ccc(Cl)cc3C2)C1 [A52, 4-({5-[(7-chloro-1,2,3,4-tetrahydroisoquinolin-2-yl)sulfonyl]-9-(cyclohexylmethyl)-3-methylidene-1,5,9-triazacyclododecan-1-yl}sulfonyl)-N,N-dimethylaniline]	0.0456 µM	1.04 µM	2.11 µM	> 25 µM	31%	29.3%	40.1%	38.3%	–	–	–	–	–	–	–	–
C=C1CN(S(=O)(=O)c2ccc(N(C)C)cc2)CCCN(CC2CCCCC2)CCCN(S(=O)(=O)N2CCC[C@H](c3ccccc3)C2)C1 [A49, 4-{[9-(cyclohexylmethyl)-3-methylidene-5-{[(3 R)-3-phenylpiperidin-1-yl]sulfonyl}-1,5,9-triazacyclododecan-1-yl]sulfonyl}-N,N-dimethylaniline]	0.407 µM	> 25 µM	> 25 µM	> 25 µM	3.5%	11.8%	16.4%	9.36%	–	–	–	–	–	–	–	–
CN(C)c1ccc(S(=O)(=O)N2CCCCN(S(=O)(=O)N3CCC(c4ccccc4)CC3)CCCN(CC3CCCCC3)CCC2)cc1 [B5]	–	–	–	–	–	–	–	–	1.5 µM	> 25 µM	> 25 µM	> 25 µM	0.54%	0.24%	7.08%	0.21%
C=C1CN(S(=O)(=O)c2ccc(C)cc2)CCCN(C(=O)OCCC)CCCN(S(=O)(=O)c2ccc(N(C)C)cc2)C1 [A12, propyl 5-((4-(dimethylamino)phenyl)sulfonyl)-7-methylene-9-tosyl-1,5,9-triazacyclododecane-1-carboxylate]	0.858 µM	> 25 µM	> 25 µM	> 25 µM	0.11%	0.1%	0.07%	0.22%	–	–	–	–	–	–	–	–
CN(C)c1ccc(S(=O)(=O)N2CCCN(CC3CCCCC3)CCCN(S(=O)(=O)N3CCC(c4ccccc4)CC3)CC(O)C2)cc1 (centres unmarked) [A55, 9-(cyclohexylmethyl)-1-[4-(dimethylamino)benzenesulfonyl]-5-[(4-phenylpiperidin-1-yl)sulfonyl]-1,5,9-triazacyclododecan-3-ol]	1.54 µM	> 25 µM	> 25 µM	> 25 µM	4.87%	1.18%	0.97%	0.34%	–	–	–	–	–	–	–	–
C=C1CN(S(=O)(=O)c2ccc(N(C)C)cc2)CCCN(CC2CCCCC2)CCCN(S(=O)(=O)N2CCC(c3cccc(Cl)c3)CC2)C1 [A58, 4-[(5-{[4-(3-chlorophenyl)piperidin-1-yl]sulfonyl}-9-(cyclohexylmethyl)-3-methylidene-1,5,9-triazacyclododecan-1-yl)sulfonyl]-N,N-dimethylaniline]	0.0721 µM	8.5 µM	> 25 µM	> 25 µM	31.6%	72.8%	66.7%	53.1%	–	–	–	–	–	–	–	–

Now from value to compound:

IC50 ([1]; 293FRT/TO)	IC50 ([2]; 293FRT/TO)	EC50 [3, 9]	EC50 [4, 10]	Liver Microsome Stability-% Left after 30 min w/ NADPH (%) Human ([5]; human, 30 min, NADPH)	Liver Microsome Stability-% Left after 30 min w/ NADPH (%) Mouse ([6]; mouse, 30 min, NADPH)	Liver Microsome Stability-% Left after 30 min w/ NADPH (%) Rat ([7]; rat, 30 min, NADPH)	Liver Microsome Stability-% Left after 30 min w/ NADPH (%) Monkey ([8]; monkey, 30 min, NADPH)	IC50 ([1]; Dox inducible, 293FRT/TO cells)	IC50 ([2]; Dox inducible, 293FRT/TO cells)	EC50 ([3]; H929, Celltiter-Glo)	EC50 ([4]; U266, Celltiter-Glo)	Liver Microsome Stability-% Left after 30 min w/ NADPH (%) Human ([5]; human liver microsomes, 30 min w/ NADPH)	Liver Microsome Stability-% Left after 30 min w/ NADPH (%) Mouse ([6]; mouse liver microsomes, 30 min w/ NADPH)	Liver Microsome Stability-% Left after 30 min w/ NADPH (%) Rat ([7]; rat liver microsomes, 30 min w/ NADPH)	Liver Microsome Stability-% Left after 30 min w/ NADPH (%) Monkey ([8]; monkey liver microsomes, 30 min w/ NADPH)	SMILES
0.308 µM	> 15.1 µM	> 25 µM	> 25 µM	0.04%	0.19%	0.12%	0.04%	–	–	–	–	–	–	–	–	CN(C)c1ccc(S(=O)(=O)N2CCCN(CC3CCCCC3)CCCN(S(=O)(=O)N3CCCCC3)CC3(CC3)C2)c(F)c1 [A40]
0.0242 µM	0.616 µM	1.44 µM	> 25 µM	1.89%	3.73%	3.9%	1.94%	–	–	–	–	–	–	–	–	C=C1CN(S(=O)(=O)c2ccc(N(C)C)cc2)CCCN(CC2CCCCC2)CCCN(S(=O)(=O)N2CCc3cc(F)ccc3C2)C1 [A59, 4-{[9-(cyclohexylmethyl)-5-[(6-fluoro-1,2,3,4-tetrahydroisoquinolin-2-yl)sulfonyl]-3-methylidene-1,5,9-triazacyclododecan-1-yl]sulfonyl}-N,N-dimethylaniline]
0.108 µM	6.34 µM	4.98 µM	> 25 µM	0.11%	2.09%	2.62%	41.1%	–	–	–	–	–	–	–	–	C=C1CN(S(=O)(=O)c2ccc(N(C)C)cc2)CCCN(CC2CCCCC2)CCCN(S(=O)(=O)N(C)C)C1 [A16, 9-(cyclohexylmethyl)-5-[4-(dimethylamino)benzenesulfonyl]-N,N-dimethyl-3-methylidene-1,5,9-triazacyclododecane-1-sulfonamide]
> 25 µM	> 25 µM	> 25 µM	> 25 µM	0.03%	0.13%	0.04%	0.03%	–	–	–	–	–	–	–	–	O=C(c1ccc(Cl)cc1)N1CCCN(S(=O)(=O)N2CCCCC2)CC2(CC2)CN(S(=O)(=O)N2CCCCC2)CCC1 [A24, (5,13-bis(piperidin-1-ylsulfonyl)-5,9,13-triazaspiro[2.11]tetradecan-9-yl)(4-chlorophenyl)methanone]
0.075 µM	3.29 µM	6.4 µM	> 25 µM	53.3%	53.1%	63.1%	48%	–	–	–	–	–	–	–	–	C=C1CN(S(=O)(=O)c2ccc(N(C)C)cc2)CCCN(CC2CCCCC2)CCCN(S(=O)(=O)N2CCC(C3CCCC3)CC2)C1 [A64, 4-{[9-(cyclohexylmethyl)-5-[(4-cyclopentylpiperidin-1-yl)sulfonyl]-3-methylidene-1,5,9-triazacyclododecan-1-yl]sulfonyl}-N,N-dimethylaniline]
